From article PMC11674305, “Inhibition of Neural Crest Cell Migration by Strobilurin Fungicides and Other Mitochondrial Toxicants” (Cells, 2024) come the findings set out here.

Test [1] relates to neural crest cells (NCC). In words: Transwell migration assay (FBS chemoattractant, 6 h). Type of test: cell-based, human. To be noted: negative controls, 100 µM. How it is done: Cells were seeded at a density of 50,000 cells/well (150,000 cells/cm^2) into the upper chamber (insert) of the 96-well transwell plates (pore size 8 μm, polycarbonate membrane, Corning, Glendale, AZ, USA). The cells were stimulated to migrate through the membrane by medium supplemented with 5% of the chemoattractant fetal bovine serum (FBS) (PAA Laboratories, Pasching, Austria) in the lower chamber (reservoir). For testing of migration inhibition upon compound treatment, compounds were used at a concentration of BMC10 (V) of prior cMINC testing. Three technical replicates per condition were used. As a control for “unstimulated” migration, medium without any chemoattractant was tested. As an endpoint specific control for “inhibited” migration, CytoD with a concentration of 200 nM was used. After 6 h incubation time, the medium was aspirated, and reservoirs were washed with DPBS. Afterwards, reservoirs were filled with EDTA dissociation solution (DPBS supplemented with 0.1% 0.5 M EDTA UltraPure pH 8.0 (Thermo Fisher Scientific, Waltham, MA, USA), and 0.18% NaCl) containing 0.25 μL/mL calcein-AM and incubated for 30 min at 37 °C. The plates were then centrifuged at 300× g for 5 min (1200 rpm, Heraeus Multifuge 1 S-R, ThermoScientific) to remove migrated cells from the membrane. The tray with 96 wells of permeable inserts was removed, and the receiver plate was measured in the spectrophotometer (TECAN, Männedorf, Switzerland) with an emission wavelength of 520 nm. After subtraction of the blank values, the number of migrated cells was normalized to that of cells stimulated with FBS.
To perform the experiments under mitochondria-dependent conditions, the cells were handled exactly in the same way, but the medium was adapted. The N2-S medium was adjusted, so that no glucose was present but galactose. The medium consisted of SILAC^TM Advanced DMEM/-F12 FLEX (Gibco/Fisher Scientific, Hampton, NH, USA), 15 μg/mL insulin, 400 μM GlutaMAX, 0.7 mM L-Arginine, 0.5 mM L-Lysine, 21.5 µM Phenol Red, 20 nM progesterone, 100 μM putrescine and 30 nM selenium, 92.5 μg/mL apotransferrin, 4.7 mg/mL galactose (18 mM). The cytokines 20 ng/mL EGF and 20 ng/mL FGF2 were always freshly added to each run.

The subject of test [2] is neural crest cells (NCC). In words: cMINC (UKN2) assay: circular migration of neural crest cells, with viability. The format is cell-based, human. To be noted: Pre-Screen 1, single concentration 1:1000 of stock, in most cases 100 μM. As for the experimental part: The research group initially developed the first version of the test in 2012 [40]. The test has been further improved and characterized. To perform the cMINC assay, NCCs were thawed in N2-S Medium and seeded on the day of migration-1 (DoM-1) on a 96-well polystyrene plate (Corning, Glendale, AZ, USA) around stoppers, to create a cell-free area of 2 mm diameter (Platypus Technologies, Madison, WI, USA). The cells were resuspended in N2-S Medium supplemented with […] of the cytokines EGF and FGF, and then counted and seeded around the stoppers at a density of 95,000 cells/cm^2. After 24 h, the stoppers were removed, and the medium was exchanged. The removal of the stoppers initiates migration of the NCCs into the cell-free area. For the treatment, the 5x-concentrated toxicant solution was added to the medium 24 h after stopper removal.
On day 2, cells were stained with 533 nM calcein-AM and 1 μg/mL H-33342 (both from Sigma, Steinheim, Germany) and observed using two different channels on the Cellomics ArrayScan VTI imaging microscope (Thermo Fisher, Pittsburgh, PA, USA) to assess viability and migration. For the migration, four pictures were taken in the region of interest (ROI) (5× magnification objective). Migration data were obtained using the software “Ringassay” (http://invitrotox.uni-konstanz.de/ (accessed on 3 November 2024)), which can estimate the previously cell-free area and count the number of H-33342 and calcein-AM double-positive cells. Cell viability was assessed by taking four pictures outside of the ROI with 10× magnification objective. Viable cells were defined as H-33342 and calcein-AM double-positive cells and calculated by an automatic algorithm of the ArrayScan VTI 700 Series software as described earlier. […] Each plate included wells for testing of negative (0.1% DMSO solvent) and positive controls (200 nM cytochalasin D) in addition to the wells for blinded samples. The data from control wells were used as acceptance criteria of the assay. […] Renormalization of the concentration–response curves was performed after a visual inspection that the two lowest test-concentration data points are in the no-effect range. The average response (relative to solvent control) of the lowest two test concentrations was calculated, and all other data points of the same curve were divided by this average value. The calculations of the benchmark concentrations 10 for viability (BMC10 (V)) and 25 for migration (BMC25 (M)) were performed with the online available BMC software (http://invitrotox.uni-konstanz.de/ (accessed on 4 November 2024)).

`O=C1O[C@H]([C@@H](O)CO)C(O)=C1O` [L-ascorbic acid, reference compound]: the “effect on transwell migration” value with neural crest cells (NCC) [1] is listed as “no inhibited migration was observed”. For the same compound, in the test on neural crest cells (NCC) [2], the Migration is reported as 100 % of control.

In the case of `O=C1NS(=O)(=O)c2ccccc21` [Saccharin sodium hydrate, reference compound], in the test with neural crest cells (NCC) [1], the “effect on transwell migration” value was “no inhibited migration was observed”. For the same compound, the Migration in the test with neural crest cells (NCC) [2] is 103 % of control.
